From patent publication EP0241573A1, “Topical agents for inhibiting the melanin generation” (Sansho Seiyaku Co., Ltd., priority 1986, dated 1987)

Experiments:
[1] = system: B16 cells derived from the mouse melanoma; assay: Test on B16 cultured cells derived from mouse melanoma: degree of melanin generation (blackening/whitening) observed by the naked eye; format: cell-based; parameters: key: -: Not whitened at all; +: Slightly whitened; +: Considerably whitened; ++: Whitening clearly descernible; +++: Whitening proceeded to such degree that blackening cannot be observed; settings: culture 5 days at 37°C
Experimental: I. Test on B16 Cultured Cells Derived from Mouse Melanoma (Testing Method)
Aqueous solution of vitamin E was added 30 µg/ml, 20 µg/ml, 10 µg/ml and 2 µg/ml respectively in final concentration to the culture medium for B16 cells derived from the mouse melanoma. After culture period for 5 days at 37°C, the degree of melanin generation (degree of blackening) was observed by the naked eyes.

[2] = system: mashroom tyrosinase; assay: Mushroom-derived tyrosinase activity inhibition (absorbance increase at 475 nm); format: biochemical; settings: aqueous solutions 0.1, 0.05 and 0.03 µl/ml; tyrosine substrate, pH 6.8, 37°C, 0-15 minutes
Experimental: Fig. 1 is a figure showing the test results of the tyrosinase activity inhibition by vitamin E solutions on mashroom tyrosinase. In the figure, -▲- stands for the absorbance at 475 nm of an aqueous solution of a concentration of vitamin E of 0.1 µl/ml, -●- for an aqueous solution of concentration of vitamin E of 0.05 µl/ml, -x- for an aqueous solution of a concentration of vitamin E of 0.03 µl/ml and -o- for an aqueous solution containing no vitamin E (control).
a. Test on the Mashroom-derived Tyrosinase Activity Inhibition
Samples were prepared by adding 1.0 ml of aqueous solutions containing vitamin E at concentrations of 0.1 µl/ml, 0.05 µl/ml and 0.03 µl/ml respectively to 1.0 ml of a tyrosine solution (0.3 mg/ml), 0.9 ml of a 0.1 M phosphate buffer (pH 6.8) and 0.1 ml of mashroom tyrosinase (400 U/ml), also a solution containing no vitamin E was prepared as a control, and the increase in absorbance at 475 nm at 37°C for 0-15 minutes was measured.

[3] = according to WHO; cited from earlier work
[4] = target: T1, tyrosinase from a B16 cell homogenate (Mus musculus, UniProt P11344); assay: B16 cell-derived tyrosinase activity inhibition (absorbance increase at 475 nm); format: biochemical; settings: aqueous solutions 0.1, 0.05 and 0.03 µl/ml; 10 mM dopa, pH 6.8, 37°C, 0.15 minutes
T1 construct: 0.1 ml of a 11000 G supernatant of a B16 cell homogenate; endogenous in cells; host or cells: B16 mouse melanoma cells (11000 G supernatant of homogenate)
T1 sequence (P11344 19-533): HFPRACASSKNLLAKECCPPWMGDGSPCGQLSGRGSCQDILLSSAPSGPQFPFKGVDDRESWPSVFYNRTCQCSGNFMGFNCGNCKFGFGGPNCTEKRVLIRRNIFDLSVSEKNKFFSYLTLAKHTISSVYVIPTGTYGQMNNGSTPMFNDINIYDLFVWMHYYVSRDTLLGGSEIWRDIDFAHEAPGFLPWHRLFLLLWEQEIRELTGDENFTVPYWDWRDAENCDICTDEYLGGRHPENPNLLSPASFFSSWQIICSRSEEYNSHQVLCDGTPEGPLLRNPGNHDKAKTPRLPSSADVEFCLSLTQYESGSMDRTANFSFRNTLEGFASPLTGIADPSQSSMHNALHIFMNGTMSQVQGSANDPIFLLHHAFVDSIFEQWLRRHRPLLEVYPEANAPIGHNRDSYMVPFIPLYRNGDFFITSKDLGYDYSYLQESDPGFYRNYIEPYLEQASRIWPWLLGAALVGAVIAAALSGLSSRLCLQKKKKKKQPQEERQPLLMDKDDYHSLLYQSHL
Experimental: Fig. 2 is a figure showing the test results of the tyrosinase activity inhibition by vitamin E solutions on tyrosinase from a B16 cell homogenate. In the figure, -▲-, -●- ,-x- and -o- have the same significance as in Fig. 1.
b. Test on the B16 cell-derived tyrosinase Activity Inhibition
Samples were prepared respectively by adding 1.0 ml of aqueous solutions containing vitamin E at concentrations of 0.1 µl/ml, 0.05 µl/ml and 0.03 µl/ml prepared in the production examples described hereinbelow to 0.1 ml of a 11000 G supernatant of a B16 cell homogenate, 1.0 ml of a 10 mM dopa and 0.9 ml of a 0.1 M phosphate buffer (pH 6.8), also a solution containing no vitamin E was prepared as a control, and the increase in absorbance at 475 nm at 37°C for […] was measured.

## vitamin E
[1]; 10 µg/ml final concentration
  Degree of Whitening: +
[1]; 20 µg/ml final concentration
  Degree of Whitening: ++
[1]; 30 µg/ml final concentration
  Degree of Whitening: +++
[2]
  effect to inhibit the mashroom tyrosinase: not observed
[3]
  acute toxicity: no acute toxicity
[4]
  effect to inhibit the B16 cell tyrosinase: not observed
